Consider 14 compounds from patent US12630547B2, “RAS protein degraders, pharmaceutical compositions thereof, and their therapeutic applications” (BioTheryX, Inc., priority 2019, dated 2026).

Bounds are passed on as bounds.

One test has as its system MOLM-13 cells. As to the kind of experiment: Cell viability assay (CELLTITER-GLO), MOLM-13 cells. The format is cell-based. The following applies: Homo sapiens, MOLM-13, 72 h; Table 2; compound at 10 μM, 3 days; read-out: Effect on MOLM-13 cell viability (% DMSO). How it is done:
MOLM-13 cells, MV-4-11 cells, H23, and H358 cells were independently cultured in RPMI 1640 media supplemented with 10% fetal bovine serum, streptomycin and penicillin. The cells were plated in white walled 96-well plates at 4,000 cells/well. The cells were incubated in DMSO (control) or a compound for 3 days at 37° C. under 5% CO2. A CELLTITER-GLO® reagent (100 μL) was then added to each well. After a 10 min incubation with shaking, luminescence was measured using an ENVISION® multimode plate reader.
In Tables 1 and 2, each compound was tested at 10 μM; and in Table 3, each compound was tested at 1 μM. In Tables 1 to 3, the cell viability values as % DMSO are reported as “A,” “B,” “C,” or “D;” where “A” represents a % viability value of less than 10%; “B” represents a % viability value of no less than 10% and less than 25%; “C” represents a % viability value of no less than 25% and less than 50%; and “D” represents a % viability value of no less than 50%. Compound A is […]
Background: ATP-based viability assays read luminescence as a measure of living cells.
Regarding `C=CC(=O)N1CC(N2Cc3ccc(-c4cc(O)cc5ccccc45)cc3N(CCOCCOCCC(=O)NCCOc3cccc4c3C(=O)N(C3CCC(=O)NC3=O)C4=O)C2=O)C1` (centres unmarked) [Compound 11, 3-(2-(2-(3-(1-Acryloylazetidin-3-yl)-7-(3-hydroxynaphthalen-1-yl)-2-oxo-3,4-dihydroquinazolin-1(2H)-yl)ethoxy)ethoxy)-N-(2-((2-(2,6-dioxopiperidin-3-yl)-1,3-dioxoisoindolin-4-yl)oxy)ethyl)propanamide], the viability at 10 µM was not below 50%.
With `CCC(=O)N1CC(N2Cc3ccc(-c4cc(O)cc5ccccc45)cc3N(CCOCCOCCOCCNc3cccc4c3C(=O)N(C3CCC(=O)NC3=O)C4=O)C2=O)C1` (centres unmarked) [Compound 12, 2-(2,6-Dioxopiperidin-3-yl)-4-((2-(2-(2-(2-(7-(3-hydroxynaphthalen-1-yl)-2-oxo-3-(1-propionylazetidin-3-yl)-3,4-dihydroquinazolin-1(2H)-yl)ethoxy)ethoxy)ethoxy)ethyl)amino)-isoindoline-1,3-dione], the viability at 10 µM was not below 50%.
For `C=CC(=O)N1CCN(c2ncnc3c(F)c(-c4c(O)cccc4F)c(Cl)cc23)C(CC(=O)NCCCCCNC(=O)NCc2cc3c(s2)C(=O)N(C2CCC(=O)NC2=O)C3)C1` (centres unmarked) [Compound 13, 2-(4-Acryloyl-1-(6-chloro-8-fluoro-7-(2-fluoro-6-hydroxyphenyl)quinazolin-4-yl)piperazin-2-yl)-N-(5-(3-((5-(2,6-dioxopiperidin-3-yl)-6-oxo-5,6-dihydro-4H-thieno[2,3-c]pyrrol-2-yl)methyl)ureido)pentyl)acetamide], the viability at 10 µM is not below 50%.
On the same count and under the same terms, to `C=CC(=O)N1CC(c2nc3ccc(-c4cc(O)cc5ccccc45)cc3c(=O)n2CCOCCOCCNCc2ccc(OCc3scc4c3CN([C@H]3CCC(=O)NC3=O)C4=O)cc2)C1` [Compound 14, (S)-3-(1-((4-(((2-(2-(2-(2-(1-Acryloylazetidin-3-yl)-6-(3-hydroxynaphthalen-1-yl)-4-oxoquinazolin-3(4H)-yl)ethoxy)ethoxy)ethyl)amino)methyl)phenoxy)methyl)-4-oxo-4H-thieno[3,4-c]pyrrol-5(6H)-yl)piperidine-2,6-dione] belongs not below 50%; to `C=CC(=O)N1CC(c2nc3ccc(-c4cc(O)cc5ccccc45)cc3c(=O)n2CCNCc2ccc(OCc3scc4c3CN([C@H]3CCC(=O)NC3=O)C4=O)cc2)C1` [Compound 15, (S)-3-(1-((4-(((2-(2-(1-Acryloylazetidin-3-yl)-6-(3-hydroxynaphthalen-1-yl)-4-oxoquinazolin-3(4H)-yl)ethyl)amino)methyl)phenoxy)methyl)-4-oxo-4H-thieno[3,4-c]pyrrol-5(6H)-yl)piperidine-2,6-dione], not below 50%.
The same measure, in the same setting: then `C=CC(=O)N1CC(N2Cc3ccc(-c4cc(O)cc5ccccc45)cc3N(CCCCNCc3ccc(OCc4scc5c4CN([C@H]4CCC(=O)NC4=O)C5=O)cc3)C2=O)C1` [Compound 16, (S)-3-(1-((4-(((4-(3-(1-Acryloylazetidin-3-yl)-7-(3-hydroxynaphthalen-1-yl)-2-oxo-3,4-dihydroquinazolin-1(2H)-yl)butyl)amino)methyl)phenoxy)methyl)-4-oxo-4H-thieno[3,4-c]pyrrol-5(6H)-yl)piperidine-2,6-dione], with not below 50%.

Staying with this test, now noted: Homo sapiens, MOLM-13, 72 h; Table 3; compound at 1 μM, 3 days; read-out: Effect on MOLM-13 cell viability (% DMSO).
In the case of `C=CC(=O)N1CCN(c2ncnc3c(F)c(-c4c(F)cccc4OCCOCCOCCC(=O)NCCOc4cccc5c4C(=O)N(C4CCC(=O)NC4=O)C5=O)c(Cl)cc23)CC1` (centres unmarked) [Compound 3, 3-(2-(2-(2-(4-(4-Acryloylpiperazin-1-yl)-6-chloro-8-fluoroquinazolin-7-yl)-3-fluorophenoxy)ethoxy)ethoxy)-N-(2-((2-(2,6-dioxopiperidin-3-yl)-1,3-dioxoisoindolin-4-yl)oxy)ethyl)propanamide], the viability at 1 µM is not below 50%.
The same measure, in the same setting: to `CCC(=O)N1CC(N2Cc3ccc(-c4cc(O)cc5ccccc45)cc3N(CCNCc3ccc(OCc4scc5c4CN(C4CCC(=O)NC4=O)C5=O)cc3)C2=O)C1` (centres unmarked) [Compound 4, 3-(1-((4-(((2-(7-(3-Hydroxynaphthalen-1-yl)-2-oxo-3-(1-propionylazetidin-3-yl)-3,4-dihydroquinazolin-1(2H)-yl)ethyl)amino)methyl)phenoxy)methyl)-4-oxo-4H-thieno[3,4-c]pyrrol-5(6H)-yl)piperidine-2,6-dione] belongs 10 to 25%; to `CCC(=O)N1CC(N2Cc3ccc(-c4cc(O)cc5ccccc45)cc3N(CCOCCNCc3ccc(OCc4scc5c4CN(C4CCC(=O)NC4=O)C5=O)cc3)C2=O)C1` (centres unmarked) [Compound 5, 3-(1-((4-(((2-(2-(7-(3-Hydroxynaphthalen-1-yl)-2-oxo-3-(1-propionylazetidin-3-yl)-3,4-dihydroquinazolin-1(2H)-yl)ethoxy)ethyl)amino)methyl)phenoxy)methyl)-4-oxo-4H-thieno[3,4-c]pyrrol-5(6H)-yl)piperidine-2,6-dione], not below 50%; to `CCC(=O)N1CCN(c2ncnc3c(F)c(-c4c(F)cccc4OCCOCCOCCC(=O)NCCNc4cccc5c4C(=O)N(C4CCC(=O)NC4=O)C5=O)c(Cl)cc23)CC1` (centres unmarked) [Compound 6, 3-(2-(2-(2-(6-Chloro-8-fluoro-4-(4-propionylpiperazin-1-yl)quinazolin-7-yl)-3-fluorophenoxy)ethoxy)ethoxy)-N-(2-((2-(2,6-dioxopiperidin-3-yl)-1,3-dioxoisoindolin-4-yl)amino)ethyl)propanamide], not below 50%.
Same read-out and setting: then `CCC(=O)N1CC(N2Cc3ccc(-c4cc(O)cc5ccccc45)cc3N(CCOCCOCCC(=O)NCCOc3cccc4c3C(=O)N(C3CCC(=O)NC3=O)C4=O)C2=O)C1` (centres unmarked) [Compound 7, N-(2-((2-(2,6-Dioxopiperidin-3-yl)-1,3-dioxoisoindolin-4-yl)oxy)ethyl)-3-(2-(2-(7-(3-hydroxynaphthalen-1-yl)-2-oxo-3-(1-propionylazetidin-3-yl)-3,4-dihydroquinazolin-1(2H)-yl)ethoxy)ethoxy)propanamide], with not below 50%; and `CCC(=O)N1CCN(c2ncnc3c(F)c(-c4c(F)cccc4OCCOCCOCCC(=O)NCCOc4cccc5c4C(=O)N(C4CCC(=O)NC4=O)C5=O)c(Cl)cc23)CC1` (centres unmarked) [Compound 8, 3-(2-(2-(2-(6-Chloro-8-fluoro-4-(4-propionylpiperazin-1-yl)quinazolin-7-yl)-3-fluorophenoxy)ethoxy)ethoxy)-N-(2-((2-(2,6-dioxopiperidin-3-yl)-1,3-dioxoisoindolin-4-yl)oxy)ethyl)propanamide], with not below 50%.
Regarding `CCC(=O)N1CCN(c2ncnc3c(F)c(-c4c(F)cccc4OCCOCCOCCOCCNc4cccc5c4C(=O)N(C4CCC(=O)NC4=O)C5=O)c(Cl)cc23)CC1` (centres unmarked) [Compound 9, 4-((2-(2-(2-(2-(2-(6-Chloro-8-fluoro-4-(4-propionylpiperazin-1-yl)quinazolin-7-yl)-3-fluorophenoxy)ethoxy)ethoxy)ethoxy)ethyl)amino)-2-(2,6-dioxopiperidin-3-yl)isoindoline-1,3-dione], the viability at 1 µM was not below 50%.
Same read-out and setting: to `C=CC(=O)N1CC(N2Cc3ccc(-c4cc(O)cc5ccccc45)cc3N(CCOCCC(=O)NCCOc3cccc4c3C(=O)N(C3CCC(=O)NC3=O)C4=O)C2=O)C1` (centres unmarked) [Compound 10, 3-(2-(3-(1-Acryloylazetidin-3-yl)-7-(3-hydroxynaphthalen-1-yl)-2-oxo-3,4-dihydroquinazolin-1(2H)-yl)ethoxy)-N-(2-((2-(2,6-dioxopiperidin-3-yl)-1,3-dioxoisoindolin-4-yl)oxy)ethyl)propanamide] belongs not below 50%.

What is called viability is a read-out of living cells in per cent, often relative to untreated cells.
